Test results taken from paper PMC9486805, “Identification of a Phage Display-Derived Peptide Interacting with the N-Terminal Region of Factor VII Activating Protease (FSAP) Enables Characterization of Zymogen Activation” (ACS Chemical Biology, 2022).

Assays:
plasma proteins = experiment: Binding of biotinylated NNKC9/41 to immobilized plasma proteins; settings: Fig 2B, as summarised
Procedure: (§1) Figure 2 NNKC9/41 interacts with the NTR of pro-FSAP: (A) To determine peptide binding to pro-FSAP, wells were coated with 2 μg/mL pro-FSAP and biotinylated NNKC9/41 and NNK11/189 and their respective scrambled controls were added in different concentration (0–5 μM). Peroxidase-labeled streptavidin was used to detect peptide binding. (B) Same procedure as in (A) except that different proteins were immobilized and biotinylated NNKC9/41 (0–30 μM) was added and its binding was measured. (C) Schematic structure of pro-FSAP with the heavy chain consisting of an NTR, three EGF domains, and a kringle domain, followed by the light chain harboring the serine protease domain (SPD). The binding domains of antibodies used in this study are indicated. (D) Recombinant complete heavy chain (heavy) and truncated heavy chain variants ΔNTR, ΔEGF1, ΔEGF2, ΔEGF3, and ΔKringle were expressed in bacteria and analyzed by sodium dodecyl sulfate poly(acrylamide) gel electrophoresis (SDS-PAGE) followed by Coomassie staining. […] Biotinylated NNKC9/41 or the scrambled control peptide was added at 1 μM and peptide binding was measured with peroxidase-linked streptavidin. […]
(§2) Wells were coated with anti-FSAP polyclonal antibodies (5 μg/mL). […] Subsequently, the plates were washed, and bound peptides were detected with peroxidase-coupled streptavidin. […]

pro-FSAP in human plasma = target: T1, pro-FSAP in human plasma (Homo sapiens, UniProt Q14520); experiment: Activation of endogenous pro-FSAP in plasma, fluorogenic substrate turnover; type: biochemical
T1 construct: from tissue; host or cells: human hirudin or citrate plasma from healthy donors, diluted 1:12

[1] = tested on: extrinsic pathway of coagulation; experiment: Plasma clotting assay, diluted prothrombin time (dPT); type: biochemical, human; settings: prothrombin-deficient citrated plasma 1:5, 10 mM CaCl2; peptide 0–25 μM, 60 min 37 °C; three experiments (Fig 6B)
Procedure: Figure 6 Pro-FSAP activation and clotting in plasma by NNKC9/41: (A) citrate plasma (1:12 dilution) from donors with WT/WT, WT/MI, and MI/MI genotypes and WT-FSAP-deficient plasma (FSAP-DP) were compared. Substrate turnover was monitored after addition of NNKC9/41 or the Ser–Ser linear peptide (25 μM each). Results are shown as mean + range of duplicate wells. (B) Pooled prothrombin-deficient citrated plasma (1:5 dilution) was recalcified with 10 mM CaCl2 and incubated with NNKC9/41 or scrambled control peptide (0–25 μM each) for 60 min at 37 °C in the presence or absence of the FSAP-inhibitory MA-FSAP-38C7 (5 μg/mL). Initiation of clotting was achieved by adding the tissue factor/phospholipid and prothrombin complex concentrate. Clotting time was measured as diluted prothrombin time (dPT) in seconds. Data are the mean of three independent experiments. […]
Prothrombin-deficient citrated pool plasma (Haemochrom Diagnostica, diluted 1:5 in HBS, pH 7.4) was recalcified with 10 mM CaCl2 and incubated with peptides for 60 min at 37 °C in the presence or absence of the FSAP-inhibitory MA-FSAP-38C7 (5 μg/mL). […] Clot formation was measured optically at 405 nm in a plate reader (Tecan, Crailsheim, Germany). The time from starting the reaction to 50% maximum clot turbidity was measured as diluted prothrombin time (dPT) in seconds.

Factor XIIa = experiment: Specificity: factor XIIa; type: biochemical; settings: Factor XIIa 20 nM; peptide 0-50 μM; CS31 (Fig S7)
Procedure: Fig S7. Specificity of NNKC9/41 towards other pro-enzymes: Zymogens and their respective active enzymes were incubated with NNKC9/41 or Ser-Ser linear peptide (0-50 μM) and the enzyme activity was monitored using respective chromogenic substrates. Activity of Factor XII(100 nM) and Factor XIIa (20 nM) was measured with the substrate CS31 (1000 µM). Pro-thrombin (100 nM) and thrombin (20 nM) […]
(§3) Bend, IN, USA) except plasminogen and FSAP, which were isolated in house; and pro-uPA was from Grünenthal (Stolberg, Germany). All chromogenic substrates were from Hyphen Biomed (Neuville Sur Oise, France). Experiments were carried out in TBS with Tween-20 (0.1 % wt/ vol) BSA (0.3% wt/vol) and CaCl2 (2 mM). Absorbance at 405 nm was measured over time and the enzyme activity is depicted was measured in duplicates (mean + or -range) and similar results were obtained in 3

ΔEGF3 mutant = experiment: Binding of biotinylated peptides to captured ΔEGF3 mutant; parameters: species or system human; settings: peptide 1 μM; triplicate wells (Fig 2E)
Procedure: as §1, §2

[2] = tested on: light chain/serine protease domain (SPD); experiment: Binding of biotinylated peptides to captured recombinant FSAP light chain/SPD; parameters: species or system human; settings: peptide 1 μM; triplicate wells (Fig 2E)
Procedure: as §1, §2

Factor Xa = experiment: Specificity: factor Xa; type: biochemical; settings: Factor Xa 20 nM; peptide 0-50 μM; S-2765 (Fig S7)
Procedure: Fig S7. […]
as §3

T1 sequence (Q14520 24-560): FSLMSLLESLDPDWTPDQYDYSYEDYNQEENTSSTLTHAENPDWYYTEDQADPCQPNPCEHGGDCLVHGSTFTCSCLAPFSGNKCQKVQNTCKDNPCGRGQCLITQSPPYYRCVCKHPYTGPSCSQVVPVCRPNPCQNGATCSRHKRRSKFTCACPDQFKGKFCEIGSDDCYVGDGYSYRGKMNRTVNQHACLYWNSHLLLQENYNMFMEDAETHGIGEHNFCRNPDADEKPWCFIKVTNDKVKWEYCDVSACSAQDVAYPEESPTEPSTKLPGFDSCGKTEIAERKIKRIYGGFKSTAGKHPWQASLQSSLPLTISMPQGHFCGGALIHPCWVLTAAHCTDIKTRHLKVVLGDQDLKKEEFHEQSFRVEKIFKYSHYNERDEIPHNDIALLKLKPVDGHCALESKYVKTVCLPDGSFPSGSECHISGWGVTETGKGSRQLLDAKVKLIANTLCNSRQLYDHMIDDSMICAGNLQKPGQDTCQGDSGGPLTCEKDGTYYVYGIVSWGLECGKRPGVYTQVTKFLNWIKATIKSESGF

## CRGAMWMYKRC [NNKC9/41]
Plasma proteins
  binding to other plasma proteins: did not bind to any other plasma proteins tested, except FSAP
pro-FSAP in human plasma; citrate plasma 1:2, 10 μM, 3 donors (Fig S5)
  effect in citrate plasma 1:2: completely abolished
pro-FSAP in human plasma; hirudin and citrate plasma 1:2 (Fig S5)
  pro-FSAP activation in 1:2 diluted plasma vs higher dilution: lower pro-FSAP activation
[1]
  clotting time (diluted prothrombin time): significant effect on lowering the clotting time
Factor XIIa
  effect on activity: did not influence the activity
ΔEGF3 mutant
  peptide binding to ΔEGF3 mutant: higher binding
[2]
  peptide binding to light chain/SPD: very low binding
Factor Xa
  effect on activity: did not influence the activity
